Assays:
[1] = test system: Mus musculus; test: Induction of psychedelics activity in mouse assessed as head-twitch response at upto 10 mg/kg, ip measured for 30 min; format: functional; conditions: 0.5 h
[2] = test system: Mus musculus; test: Induction of psychedelics activity in C57BL/6J mouse assessed as head-twitch response at upto 10 mg/kg, ip measured for 30 min; format: functional; conditions: 0.5 h

Compound	ED50 [1] [mg/kg]	ED50 [2] [µmol/kg]
Cc1ccc2[nH]cc(CCN(C)C)c2c1OP(=O)(O)O	1.23	
CN(C)CCc1c[nH]c2ccccc12 [N,N-DIMETHYLTRYPTAMINE]		5.05

— ChEMBL document CHEMBL5226298, “Chemoenzymatic Synthesis of 5-Methylpsilocybin: A Tryptamine with Potential Psychedelic Activity” (2021)
